Test results published in ChEMBL document CHEMBL6153019, “A series of indole-derived γ-hydroxy propiolate esters as potent anti-inflammatory agents: Design, synthesis, in-vitro and in-vivo biological studies” (Eur J Med Chem, 2024).
Activity calls are given as the source filed them. The rule behind the calls is not given here.

Columns and labels:
RAW264.7 [1] = test: Anti-inflammatory activity against LPS-induced mouse RAW264.7 cells assessed as inhibition of COX-1 expression at 5 uM incubated for 24 hrs by ELISA method relative to control; assay type: functional
RAW264.7 [2] = test: Anti-inflammatory activity against LPS-induced mouse RAW264.7 cells assessed as inhibition of 5-LOX protein expression at 5 uM incubated for 24 hrs by ELISA method relative to control; assay type: functional
RAW264.7 [3] = test: Anti-inflammatory activity against LPS-Induced mouse RAW264.7 cells assessed as inhibition of COX-1 expression level at 5 uM incubated for 24 hrs by ELISA method relative to control; assay type: functional
RAW264.7 [4] = test: Anti-inflammatory activity against LPS-Induced mouse RAW264.7 cells assessed as inhibition of COX-2 at 5 uM incubated for 24 hrs by ELISA method relative to control; assay type: functional
RAW264.7 [5] = test: Anti-inflammatory activity against LPS-induced mouse RAW264.7 cells assessed as downregulation of COX-1 protein expression level incubated for 24 hrs by ELISA method; assay type: functional, cell-based
RAW264.7 [6] = test: Anti-inflammatory activity against LPS-Induced mouse RAW264.7 cells assessed as inhibition of COX-2 expression level at 5 uM incubated for 24 hrs by ELISA method relative to control; assay type: functional
RAW264.7 [7] = test: Anti-inflammatory activity against LPS-Induced mouse RAW264.7 cells assessed as inhibition of Nitric oxide release at 10 uM measured after 18 hrs by Griess reagent assay relative to control; assay type: functional; set-up: Activity: scale not given: the % may be the effect or the level left; details: for inhibition at 10 µM: Mus musculus, RAW264.7
Mus musculus [8] = test: Anti-inflammatory activity against female Kunming mouse model xylene-induced auricle edema assessed as inhibition of ear swelling at 100 mg/kg, IP measured after 1 hr relative to control; assay type: functional; set-up: scale not given: the % may be the effect or the level left
RAW264.7 [9] = test: Anti-inflammatory activity against LPS-Induced mouse RAW264.7 cells assessed as inhibition of LT release at 1 uM incubated for 24 hrs by LT determination assay relative to control; assay type: functional
RAW264.7 [10] = test: Anti-inflammatory activity against LPS-Induced mouse RAW264.7 cells assessed as inhibition of Nitric oxide release at 1 uM measured after 18 hrs by Griess reagent assay; assay type: functional, cell-based
RAW264.7 [11] = test: Anti-inflammatory activity against LPS-Induced mouse RAW264.7 cells assessed as inhibition of PGF1 production at 1 uM incubated for 24 hrs by ELISA method relative to control; assay type: functional
RAW264.7 [12] = test: Anti-inflammatory activity against LPS-Induced mouse RAW264.7 cells assessed as inhibition of Nitric oxide release at 1 uM measured after 18 hrs by Griess reagent assay relative to control; assay type: functional
RAW264.7 [13] = test: Anti-inflammatory activity against LPS-Induced mouse RAW264.7 cells assessed as inhibition of PGF1 production at 5 uM incubated for 24 hrs by ELISA method relative to control; assay type: functional
RAW264.7 [14] = test: Anti-inflammatory activity against LPS-Induced mouse RAW264.7 cells assessed as inhibition of LT release at 5 uM incubated for 24 hrs by LT determination assay relative to control; assay type: functional
RAW264.7 [15] = test: Anti-inflammatory activity against LPS-Induced mouse RAW264.7 cells assessed as inhibition of PGE2 production at 5 uM measured after 24 hrs by ELISA method; assay type: functional, cell-based
RAW264.7 [16] = test: Anti-inflammatory activity against LPS-Induced mouse RAW264.7 cells assessed as increase inhibition of PGE2 production measured after 24 hrs by ELISA method; assay type: functional, cell-based
RAW264.7 [17] = test: Anti-inflammatory activity against LPS-Induced mouse RAW264.7 cells assessed as inhibition of PGE2 production at 10 uM measured after 24 hrs by ELISA method; assay type: functional
Mus musculus [18] = test: Anti-inflammatory activity against female Kunming mouse model xylene-induced auricle edema assessed as inhibition rate of ear swelling measured after 1 hr; assay type: functional, organism-based
RAW264.7 [19] = test: Anti-inflammatory activity against LPS-Induced mouse RAW264.7 cells assessed as inhibition of PGE2 production at 1uM measured after 24 hrs by ELISA method; assay type: functional
RAW264.7 [20] = test: Anti-inflammatory activity against LPS-Induced mouse RAW264.7 cells assessed as inhibition of TXB-2 release at 5 uM incubated for 24 hrs by LT determination assay relative to control; assay type: functional; set-up: scale not given: the % may be the effect or the level left
RAW264.7 [21] = test: Antiproliferative activity against mouse RAW264.7 cells assessed as tumor growth inhibition at 10 uM preincubated for 4 hrs followed by compound addition and measured after 20 hrs by MTT assay; assay type: functional, cell-based
Mus musculus [22] = test: Anti-inflammatory activity against female Kunming mouse model xylene-induced auricle edema assessed as inhibition of ear swelling at 50 mg/kg, ip measured after 1 hr relative to control; assay type: functional; set-up: scale not given: the % may be the effect or the level left
RAW264.7 [23] = test: Anti-inflammatory activity against LPS-Induced mouse RAW264.7 cells assessed as inhibition in COX-2 expression at 1uM incubated for 24 hrs by ELISA method; assay type: functional, cell-based
RAW264.7 [24] = test: Anti-inflammatory activity against LPS-Induced mouse RAW264.7 cells assessed as inhibition of TXB-2 release at 1 uM incubated for 24 hrs by LT determination assay relative to control; assay type: functional
[25] = Cytotoxicity against mouse RAW264.7 cells assessed as cell survival at 5 uM preincubated for 4 hrs followed by compound addition and measured after 20 hrs by MTT assay relative to control; assay type: toxicity, cell-based; details: read-out: Survival
[26] = Cytotoxicity against mouse RAW264.7 cells assessed as cell survival at 10 uM preincubated for 4 hrs followed by compound addition and measured after 20 hrs by MTT assay relative to control; assay type: toxicity, cell-based; details: read-out: Survival

Work on `COC(=O)C#CC1(O)C(=O)N(Cc2cccc3ccccc23)c2cc(Cl)ccc21` (configuration not stated) yielded an inhibition at 5 µM (RAW264.7 [1]) of 35.3%, an inhibition at 5 µM (RAW264.7 [2]) of 71.2% and an inhibition at 5 µM (RAW264.7 [3]) of 35.3%. The inhibition at 5 µM (RAW264.7 [4]) was 42.6%, the inhibition (RAW264.7 [5]) was “Active” and the inhibition at 5 µM (RAW264.7 [6]) was 42.6%. The inhibition at 10 µM (RAW264.7 [7]) was 102%.
`COC(=O)C#CC1(O)C(=O)Nc2ccc(C)cc21` (configuration not stated) showed an Activity (RAW264.7 [7]) of 81.68%.
With `COC(=O)C#CC1(O)C(=O)N(Cc2ccccc2)c2cc(Cl)ccc21` (configuration not stated) the Activity (Mus musculus [8]) was 85.43%, the inhibition at 1 µM (RAW264.7 [9]) was 25.9% and the inhibition (RAW264.7 [10]) was “Active”. It also gave an inhibition at 1 µM (RAW264.7 [11]) of 16%, an inhibition at 1 µM (RAW264.7 [12]) of 50% and an inhibition at 5 µM (RAW264.7 [13]) of 16.6%. For the same molecule, the inhibition at 5 µM (RAW264.7 [14]) was 11%, the inhibition (RAW264.7 [15]) was “Active” and the inhibition (RAW264.7 [16]) was “Dose-dependent-effect”. The inhibition at 10 µM (RAW264.7 [17]) was 94.5%, the Activity (Mus musculus [18]) was “Dose-dependent-effect” and the inhibition at 1 µM (RAW264.7 [19]) was 58%. The Activity (RAW264.7 [20]) was 21.14%, the Activity (RAW264.7 [21]) was “Active” and the Activity (Mus musculus [22]) was 78.14%. The inhibition at 5 µM (RAW264.7 [4]) was 38.8%, the inhibition at 5 µM (RAW264.7 [6]) was 38.8% and the inhibition (RAW264.7 [23]) was “Active”. For the same molecule, the inhibition at 10 µM (RAW264.7 [7]) was 101%, the inhibition at 1 µM (RAW264.7 [24]) was 25.4% and the viability at 20 h, 5 µM [25] was 57.9%.
`COC(=O)C#CC1(O)C(=O)N(Cc2cccc3ccccc23)c2ccc(Cl)cc21` (configuration not stated) showed a viability at 20 h, 10 µM [26] of 99.9%.
`COC(=O)C#CC1(O)C(=O)N(C)c2cccc(Cl)c21` (configuration not stated) gave a viability at 20 h, 10 µM [26] of 86.7%.
For `Cc1ccc(-c2cc(C(F)(F)F)nn2-c2ccc(S(N)(=O)=O)cc2)cc1` [CELECOXIB], the Activity (Mus musculus [8]) was 93.23%.
